≈ marks a conversion by molar mass, not a printed value.
How the values were obtained:
Format in all cases: functional, cell-based
M14 = assay: Cytotoxicity against human M14 cells after 24 hrs by MTT assay; details: M14, 24 h
MCF7 = assay: Cytotoxicity against human MCF7 cells after 24 hrs by MTT assay; details: MCF7, 24 h
[1] = Cytotoxicity against human SW1116 cells after 24 hrs by MTT assay; details: SW 1116, 24 h

Row | SMILES | IC50 (M14) | IC50 (MCF7) | IC50 [1]
1 | Cc1nc2c3c(ccc2s1)NC1=C(C(=O)OC1)C3c1ccc(Br)cc1 (racemic) | 167 mg/L (≈ 405 µM) | 748 mg/L (≈ 1810 µM) | 257 mg/L (≈ 623 µM)
2 | Cc1nc2c3c(ccc2s1)NC1=C(C(=O)OC1)C3c1cccc([N+](=O)[O-])c1 (racemic) | 77.9 mg/L (≈ 205 µM) | 151 mg/L (≈ 399 µM) | 26 mg/L (≈ 68.5 µM)
3 | Cc1nc2c3c(ccc2s1)NC1=C(C(=O)OC1)C3c1ccc([N+](=O)[O-])cc1 (racemic) | > 1000 mg/L | > 1000 mg/L | > 1000 mg/L
4 | Cc1nc2c3c(ccc2s1)NC1=C(C(=O)OC1)C3c1ccccc1 (racemic) | > 1000 mg/L | > 1000 mg/L | 156 mg/L (≈ 466 µM)
5 | Cc1ccc(C2C3=C(COC3=O)Nc3ccc4sc(C)nc4c32)cc1 (racemic) | 225 mg/L (≈ 645 µM) | 25.7 mg/L (≈ 73.7 µM) | 122 mg/L (≈ 350 µM)
6 | COc1ccc(C2C3=C(COC3=O)Nc3ccc4sc(C)nc4c32)cc1 (racemic) | 508 mg/L (≈ 1390 µM) |  | > 1000 mg/L
7 | Cc1nc2c3c(ccc2s1)NC1=C(C(=O)OC1)C3c1ccc(Cl)cc1Cl (racemic) | > 1000 mg/L | 539 mg/L (≈ 1340 µM) | 
8 | Cc1nc2c3c(ccc2s1)NC1=C(C(=O)OC1)C3c1ccc(O)c([N+](=O)[O-])c1 (racemic) | 33.9 mg/L (≈ 85.7 µM) | 56 mg/L (≈ 142 µM) | 69.4 mg/L (≈ 176 µM)
9 | COc1cc(C2C3=C(COC3=O)Nc3ccc4sc(C)nc4c32)cc(OC)c1OC (racemic) | > 1000 mg/L | 686 mg/L (≈ 1620 µM) | 383 mg/L (≈ 903 µM)

From ChEMBL document CHEMBL1921767, “Facile synthesis of new 4-aza-podophyllotoxin analogs via microwave-assisted multi-component reactions and evaluation of their cytotoxic activity” (Bioorg Med Chem Lett, 2011)
